Experimental data: patent US5783178A, “Polymer linked biological agents” (Supratek Pharma. Inc., priority 1994, dated 1998)
≈ marks a conversion by molar mass, not a printed value. Like-named read-outs stand apart in the source and are kept apart here.

Legend:
Sp2-resistant cell line = test: Cytotoxicity towards Sp2-resistant cells (XTT); assay type: cell-based, murine; settings: Mus musculus, Example 7
[1] = test system: MCF-7 line of human breast cancer cells; test: Micellar agent delivery, cytotoxicity against MCF-7; assay type: cell-based; settings: MCF7
Sp2 myeloma cell line = test: Tumor treatment, Sp2 tumors; assay type: in vivo, female Balb C mice; settings: i.v. at MTD
in vivo = settings: mouse, ip
[2] = test system: murine myeloma cell line Sp2/0 (Sp2); test: Cytotoxicity towards Sp2 cells (XTT); assay type: cell-based; settings: Mus musculus, Example 7
[3] = test system: Sp2-resistant myeloma cells; test: Tumor treatment, Sp2-resistant tumors; assay type: in vivo, female Balb C mice; settings: i.v. at MTD
[4] = Solution stability in PBS (dissolved daunorubicin monitored by fluorescence); assay type: physicochemical; settings: 37°, PBS pH 7.0, 0.2 μM
[5] = test system: SKVLB cell line (SK-resistant cells); test: Cytotoxicity towards SK-resistant cells (XTT); assay type: cell-based
Dox-MCF-7 = test: Micellar agent delivery, cytotoxicity against Dox-MCF-7; assay type: cell-based; settings: Homo sapiens
MCF-7AU = test: Micellar agent delivery, cytotoxicity against MCF-7AU; assay type: cell-based; settings: Homo sapiens
[6] = test system: SKOV3 line of transformed cells (SK cells); test: Cytotoxicity towards SK cells (XTT); assay type: cell-based; settings: Homo sapiens
SK cells = test: Activity of conjugated TNFα on SK cells (XTT); assay type: cell-based; settings: 24 hours

Compound: COc1cccc2c1C(=O)c1c(O)c3c(c(O)c1C2=O)C[C@@](O)(C(C)=O)C[C@@H]3O[C@H]1C[C@H](N)[C@H](O)[C@H](C)O1 [Free daunorubicin, daunorubicin]
- IC50 (Sp2-resistant cell line): 2.6 µg/mL (≈ 4.93 µM)
- inhibition at 0.016 µg/mL [1]: 15%
- inhibition at 0.08 µg/mL [1]: 43%
- inhibition at 0.4 µg/mL [1]: 69%
- inhibition at 2 µg/mL [1]: 91%
- inhibition at 10 µg/mL [1]: 100%
- inhibition at 50 µg/mL [1]: 100%
- V/V0 (Sp2 myeloma cell line; day 0 after first treatment): 1
- V/V0 (Sp2 myeloma cell line; day 4 after first treatment): 1.5
- V/V0 (Sp2 myeloma cell line; day 7 after first treatment): 2.4
- V/V0 (Sp2 myeloma cell line; day 12 after first treatment): 8.8
- V/V0 (Sp2 myeloma cell line; day 14 after first treatment): 10.9
- V/V0 (Sp2 myeloma cell line; day 17 after first treatment): 16.8
- V/V0 (Sp2 myeloma cell line; day 21 after first treatment): 17.5
- V/V0 (Sp2 myeloma cell line; day 25 after first treatment): 16.1
- V/V0 (Sp2 myeloma cell line; day 28 after first treatment): 15.8
- V/V0 (Sp2 myeloma cell line; day 32 after first treatment): 15.9
- V/V0 (Sp2 myeloma cell line; day 35 after first treatment): 15.7
- LD50 at 336 h (in vivo): 7 mg/kg
- MTD at 336 h (in vivo): 5 mg/kg
- IC50 [2]: 0.22 µg/mL (≈ 0.417 µM)
- V/V0 ([3]; day 0 after first treatment): 1
- V/V0 ([3]; day 3 after first treatment): 2.7
- V/V0 ([3]; day 6 after first treatment): 3.4
- V/V0 ([3]; day 8 after first treatment): 5.1
- V/V0 ([3]; day 10 after first treatment): 6.6
- V/V0 ([3]; day 13 after first treatment): 11.6
- V/V0 ([3]; day 16 after first treatment): 20.9
- V/V0 ([3]; day 20 after first treatment): 25.9
- V/V0 ([3]; day 23 after first treatment): 38.4
- V/V0 ([3]; day 27 after first treatment): 50.9
- V/V0 ([3]; day 31 after first treatment): 68.3
- V/V0 ([3]; day 34 after first treatment): 73.0
- V/V0 ([3]; day 38 after first treatment): 83.4
- V/V0 ([3]; day 42 after first treatment): 113.8
- V/V0 ([3]; day 45 after first treatment): 111.9
- I585 (% of initial) ([4]; 0 hours incubation): 100 % of initial
- remaining at 6 h, 0.2 µM ([4]; 6 hours incubation, read-out: I585 (% of initial)): 92%
- remaining at 27 h, 0.2 µM ([4]; 27 hours incubation, read-out: I585 (% of initial)): 89%
- remaining at 43 h, 0.2 µM ([4]; 43 hours incubation, read-out: I585 (% of initial)): 68%
- remaining at 78 h, 0.2 µM ([4]; 78 hours incubation, read-out: I585 (% of initial)): 54%
- remaining at 120 h, 0.2 µM ([4]; 120 hours incubation, read-out: I585 (% of initial)): 37%
- IC50 ([5]; Example 5, 1 h exposure, 4 days culture, daunorubicin content basis): 2.55 µg/mL (≈ 4.83 µM)
- IC50 ([5]; Example 6, methods of Example 5): 45 µg/mL (≈ 85.3 µM)
- inhibition at 0.016 µg/mL (Dox-MCF-7): 2%
- inhibition at 0.08 µg/mL (Dox-MCF-7): 7%
- inhibition at 0.4 µg/mL (Dox-MCF-7): 39%
- inhibition at 2 µg/mL (Dox-MCF-7): 62%
- inhibition at 10 µg/mL (Dox-MCF-7): 86%
- inhibition at 50 µg/mL (Dox-MCF-7): 100%
- inhibition at 0.016 µg/mL (MCF-7AU): 3%
- inhibition at 0.08 µg/mL (MCF-7AU): 9%
- inhibition at 0.4 µg/mL (MCF-7AU): 37%
- inhibition at 2 µg/mL (MCF-7AU): 65%
- inhibition at 10 µg/mL (MCF-7AU): 89%
- inhibition at 50 µg/mL (MCF-7AU): 100%
- IC50 ([6]; SK-OV-3, Example 5, 1 h exposure, 4 days culture, daunorubicin content basis, read-out: IC50): 0.32 µg/mL (≈ 0.607 µM)
- IC50 ([6]; SK-OV-3, Example 6, methods of Example 5): 5.2 µg/mL (≈ 9.86 µM)

Compound: human tumor necrosis factorα [TNFα]
- Inhibition, % (± SD) (SK cells; TNFα concentration 0.01 (unit not given)): 0%
- Inhibition, % (± SD) (SK cells; TNFα concentration 0.05 (unit not given)): 2 (± 2) %
- Inhibition, % (± SD) (SK cells; TNFα concentration 0.2 (unit not given)): 5 (± 3) %
- Inhibition, % (± SD) (SK cells; TNFα concentration 1.0 (unit not given)): 4 (± 4) %
- Inhibition, % (± SD) (SK cells; TNFα concentration 5 (unit not given)): 10 (± 5) %
- Inhibition, % (± SD) (SK cells; TNFα concentration 20 (unit not given)): 22 (± 5) %
- Inhibition, % (± SD) (SK cells; TNFα concentration 50 (unit not given)): 35 (± 7) %
- Inhibition, % (± SD) (SK cells; TNFα concentration 100 (unit not given)): 44 (± 6) %
- Inhibition, % (± SD) (SK cells; TNFα concentration 200 (unit not given)): 80 (± 14) %
